Data on 5 molecules can be found in publication PMC3545992, “Trisubstituted Pyrazolopyrimidines as Novel Angiogenesis Inhibitors” (PLoS ONE, 2013).

For data set [1], the system named is HUVECs. The data set is described as follows: Scratch assay (migration assay). In kind it is cell-based, human. How it is done:
A: HMEC-1 cells were seeded in the same density as for the proliferation assay and treated with the respective compound at 30 µM for 72 h to test whether reduced cell numbers in the proliferation assay are due to inhibition of proliferation or to excessive cell death. No increase of detached, obviously dead or propidium iodide positive cells was detected. B and C: Confluent layers of HUVECs were scratched and the cells were allowed to migrate for 16 h in the presence or absence of 10 µM of the compounds. B: The columns indicate the area re-covered by migrating cells (n = 3, mean ± SEM, * p<0.05, One Way ANOVA, Dunnett). C: Scratches at endpoint, representative images taken out of three experiments.
HUVECs were seeded into a 24-well plate. After reaching confluency, cells were scratched using a 100 µl pipette tip. The wounded monolayers were washed twice with PBS containing Ca^2+/Mg^2+; then growth medium containing the indicated concentration of the compounds was added. After 16 h of migration, cells were washed and subsequently fixed with 4% paraformaldehyde. […] Images were taken using the TILLvisON system (TILL Photonics GmbH, Gräfelfing, Germany) and a CCD-camera connected to an Axiovert 200 microscope (Zeiss, Oberkochen, Germany). Quantitative image analysis of the cell covered area was done by Wimasis GmbH, Munich. A completely closed scratch was set as 100% migration, the area of the original open scratch was set as 0% migration.

For a further data set, the system named is HMEC-1 cells. The data set is described as follows: Crystal violet proliferation assay. Format: cell-based, human. The following applies: HMEC-1, 72 h, read-out: IC50 endothelial cell proliferation. How it is done:
HMEC-1 cells were seeded to a density of 1,500 cells/well. After 24 h of incubation, a zero point control was stained with crystal violet. The remaining cells were left untreated as positive control or treated with 0.3-1-3-10–30 µM of the indicated compounds. After 72 h additional incubation, relative proliferation was determined by crystal violet staining and quantified as absorption at 550 nm.
HMEC-1 were seeded into 96-well-plates (1,500 cells/well). After 24 h, the cells were stimulated with the indicated compounds. At the same time point, cells in a reference plate were stained with crystal violet, serving as initial cell number. After 72 hours of stimulation, cells were fixed and stained with crystal-violet solution for 10 minutes, washed with water, and air dried. Crystal violet was eluted with dissolving buffer and absorbance was measured at 550 nm (Tecan Sunrise Absorbance reader, TECAN, Crailsheim, Germany). In a parallel series of experiments, cells seeded at the same cell density as in the proliferation assays were treated with 30 µM of the respective compound for 72 h. Afterwards, 10 µg/ml propidium iodide was added for 30 min to counterstain cells for membrane integrity. Phase contrast and fluorescence images were obtained with an inverted Nikon microscope (Ti, Nikon, Düsseldorf, Germany) equipped with a 10x objective.

Data set [2] concerns HUVECs. Briefly: Cell viability assay (CellTiter-Blue) in confluent HUVECs. Format: cell-based, human. The following applies: 30 µM, 16 h. How it is done:
Figure 2 Cdk5 is expressed in HUVECs and HMEC-1 cells, and the compounds are not cytotoxic to endothelial cells at concentrations used in functional assays. A: Cdk5 protein expression in endothelial cells in comparison to human cortex. Cdk5 protein amount was analyzed by Western blot in samples of human cortex (HC), confluent HUVECs (HU) and HMEC-1 (HM). β-actin served as a loading control and for normalization of protein amount. Relative quantification (left panel) and one representative image (right panel) of three individual blots are shown. Note the much lower protein loading in the HC sample in the right panel. (n = 3, mean ± SEM, p>0.05, One Way ANOVA, Dunnett). B: Confluent HUVECs were treated for 16 h with 10 or 30 µM of the indicated compounds or left untreated as control. After addition of CellTiter-BlueTM Reagent, cells were incubated for 4 h and fluorescence was measured at 560 nm (n = 3, mean ± SEM, * p<0.05, One Way ANOVA, Dunnett).
HUVECs were seeded in 96-well plates. After reaching confluency, the cells were treated for 16 h with the indicated compounds or left untreated as control. After addition of CellTiter-Blue^TM Reagent (Promega Corporation, Madison, WI, USA), cells were incubated for additional 4 h and fluorescence was measured at 560 nm in a plate-reading photometer (SpectraFluor Plus; Tecan, Crailsheim, Germany).
A general note: Alamar Blue is a resazurin reagent that responds to reducing activity.

Data set [3] has as its system endothelial cells. Set-up: method as in PMID 21487803. The following applies: cited from earlier work.
The subject of data set [4] is endothelial cells. Set-up: method as in PMID 20826806. To be noted: 10 µM; cited from earlier work.

Read-outs that look alike come from different tables or passages of the source.

On to `CC(C)c1n[nH]c2c(NCc3ccccc3N)nc(NC3CCCCC3N)nc12` (centres unmarked) [LGR 1430, 7-(2-Aminobenzyl)amino-5-[(2-E/Z-aminocyclohexyl)amino]-3-isopropyl-1(2)H-pyrazolo-[4,3-d]pyrimidine], for which the “effect on migration (in words)” value with HUVECs [1] (30 µM, data not shown) is on record as “no detectable effect”. The IC50 in the data set on HMEC-1 cells (Homo sapiens) turned out to be 6.16 µM.
For `CC(C)c1n[nH]c2c(NCc3ccccc3)nc(NC[C@@H](C)O)nc12` [LGR 1667, 7-Benzylamino-5(R)-[(2-hydroxypropyl)amino]-3-isopropyl-1(2)H-pyrazolo[4,3-d]pyrimidine], in the data set on HMEC-1 cells (Homo sapiens), the IC50 came to 9.54 µM.
As for `CC(C)c1n[nH]c2c(NCc3ccccc3N)nc(NC[C@H](C)O)nc12` [LGR 1695, 7-(2-Aminobenzyl)amino-5(S)-[(2-hydroxypropyl)amino]-3-isopropyl-1(2)H–pyrazolo[4,3-d]pyrimidine], the “cell viability in comparison to control” value in the data set on HUVECs [2] was “weak but significant decrease of viability”. In addition, the IC50 with HMEC-1 cells (Homo sapiens) was found to be 10.2 µM.
`CC(C)n1cnc2c(NCc3ccccc3N)nc(NC[C@@H](C)O)nc21` [LGR 1730]: the “effect on endothelial cell migration (in words)” value with HUVECs [1] (10 µM, 16 h, HUVECs) is recorded as “no significant impact”. Also, the “cell viability in comparison to control” value in the data set on HUVECs [2] was “weak but significant decrease of viability”. Further, the IC50 is 18.2 µM with HMEC-1 cells and roughly 20 µM in the data set with HMEC-1 cells (Homo sapiens).
In the case of `CC[C@H](CO)Nc1nc(NCc2ccccc2)c2ncn(C(C)C)c2n1` [roscovitine, (R)-roscovitine], the “concentration at which proliferation only started to be reduced” value in the data set with endothelial cells [3] is 30 µM. Moreover, the reduction of migration with endothelial cells [4] is on record as 20%.
